# Results reported in PubChem BioAssay AID1963831 (Molecular Pharmacology Branch, DTP, NCI, 2024).
# Test system: 889142-216-R-J1-PDC complex spheroid viability
# Experiment: Anticancer human tumor 889142-216-R-J1-PDC patient-derived bladder carcinoma cell line growth inhibition [POLQ]
# Conditions: for IC50: curve of first compound; for viability, T/C: stronger effect = lower value
# Experimental: Multicellular complex tumor spheroid response to Polymerase (POL) inhibitors (novobiocin, ART-558, RP6685) in combination with a variety of drugs and investigational agents in selected tumor cell lines
# The POL inhibitors (novobiocin, ART-558, and RP6685) were evaluated both individually and in combination with standard of care and investigational anticancer small molecules within a complex spheroid model of solid tumors. . Complex spheroids include a stromal component modeled by human endothelial cells (HUVEC) and fibroblasts modeled by human mesenchymal stem cells (MSCs). The concentration ranges selected for each drug and investigational agent were based upon clinically achievable concentrations if the clinical Cmax of the agent was known.
# Compounds. The drugs and investigational agents: novobiocin (NSC847541), ART-558 (NSC835418), RP-6685 (NSC848927), peposertib (NSC802822), ceralasertib (NSC780249), elimusertib (NSC800525), camonsertib (NSC841442), AZD-1390 (NSC803789), olaparib (NSC753686), talazoparib (NSC767125), rucaparib (NSC756644), sotorasib (NSC818433), MRTX-1133 (NSC836407), SN-38 (NSC673596), topotecan (NSC609699), epotoside (NSC141540), doxorubicin (NSC123127), gemcitabine (NSC613327), 5-fluorouracil (NSC19893), paclitaxel (NSC125973), vemurafenib (NSC761431), MSA-2 (NSC828583), SN-011 (NSC837082), adavosertib (NSC754352), prexasertib (NSC758257), carboplatin (NSC241240) and oxaliplatin (NSC266046), were obtained from the National Cancer Institute (NCI) Developmental Therapeutics Program Chemical Repository (21). The FDA-approved anticancer drug set is available from the Developmental Therapeutics Program at https://dtp.cancer.gov/organization/dscb/obtaining/. […] The stock solutions were prepared in dimethyl sulfoxide (DMSO, Sigma-Aldrich, St. Louis, MO, cat. D2650), except for the platinum compounds which were prepared in saline (Quality Biological, Gaithersburg, MD, cat. 114-055-101), at 800-fold the tested concentration and stored at -70 degrees C prior to their use. All drugs and investigational agents were tested over a range starting from a high concentration at or near the clinical Cmax and decreasing in half-log increments. If the clinical Cmax for an agent had not been determined, the highest concentration tested was 10 microM, except for SN-38, which was tested at a high concentration of 1 microM.
# Cell Culture. All cells were maintained in an incubator at 37 degrees C and 5% CO2 with 95% humidity. The PDC lines were cultured according to standard operating procedures established by the NCI PDMR (https://pdmr.cancer.gov). Table 3 of the manuscript, lists the cell lines along with the number of the three cell types plated to form the mct-spheroids and media for tumor cell growth. After thawing, all PDC lines, except 997537-175-T-J1-PDC and 415267-285-R-J2-PDC, were cultured in Matrigel-coated flasks prepared with a working solution of 1X Ham's F-12 nutrient mix, without supplementation (Thermo Fisher Scientific, cat. 11765054), 100 U/mL penicillin-streptomycin (Thermo Fisher Scientific, cat. 15140122), and 2.5% Matrigel (Corning Inc., Corning, NY, cat. 354248) for the first three passages. The two PDC lines 997537-175-T-J1-PDC and 415267-285-R-J2-PDC were cultured on uncoated flasks. The 857933-349-R-J2-PDC line was cultured in 6C/Colon 1B media containing advanced DMEM/F-12 (Thermo Fisher Scientific, cat. 12634028), 10 mM HEPES (Thermo Fisher Scientific, cat. 15630080), 1X GlutaMAX supplement (Thermo Fisher Scientific, cat. 35050061), 0.1 mg/mL primocin (InvivoGen, San Diego, CA, cat. ant-pm-2), 10% defined fetal bovine serum, heat inactivated (HyClone Laboratories Inc., Logan, UT, cat. SH30070.03HI), 50% L-WRN conditioned media (ATCC, cat. CRL-3276), 1.25 mM N-Acetyl-L-cysteine (Sigma-Aldrich, cat. A9165), 10 mM nicotinamide (Sigma-Aldrich, cat. N0636), 1X B-27 supplement (Thermo Fisher Scientific, cat. 17504044), 1X N-2 supplement (Thermo Fisher Scientific, cat. […]
# 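Further: spheroids exposed to compounds for seven days.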
# 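Wherever viability, T/C is given: 100% = DMSO vehicle control viability.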
smiles,measurement,setting,value
C=CC(=O)N1CCN(c2nc(=O)n(-c3c(C)ccnc3C(C)C)c3nc(-c4c(O)cccc4F)c(F)cc23)C(C)C1 (configuration not stated) + COC1C(OC(N)=O)C(O)C(Oc2ccc3c(O)c(NC(=O)c4ccc(O)c(CC=C(C)C)c4)c(=O)oc3c2C)OC1(C)C,IC50,second compound 0.0316 µM,> 10 µM
same,IC50,second compound 0.1 µM,> 10 µM
same,IC50,second compound 0.316 µM,> 10 µM
same,IC50,second compound 1 µM,> 10 µM
same,IC50,second compound 3.16 µM,> 10 µM
same,IC50,second compound 10 µM,> 10 µM
same,"viability, T/C","second compound 0.0316 µM, first compound 0.0316 µM",111%
same,"viability, T/C","second compound 0.0316 µM, first compound 0.1 µM",114%
same,"viability, T/C","second compound 0.0316 µM, first compound 0.316 µM",121%
same,"viability, T/C","second compound 0.0316 µM, first compound 1 µM",111%
same,"viability, T/C","second compound 0.0316 µM, first compound 3.16 µM",131%
same,"viability, T/C","second compound 0.0316 µM, first compound 10 µM",88.7%
same,"viability, T/C","second compound 0.1 µM, first compound 0.0316 µM",113%
same,"viability, T/C","second compound 0.1 µM, first compound 0.1 µM",116%
same,"viability, T/C","second compound 0.1 µM, first compound 0.316 µM",116%
same,"viability, T/C","second compound 0.1 µM, first compound 1 µM",146%
same,"viability, T/C","second compound 0.1 µM, first compound 3.16 µM",127%
same,"viability, T/C","second compound 0.1 µM, first compound 10 µM",82.4%
same,"viability, T/C","second compound 0.316 µM, first compound 0.0316 µM",111%
same,"viability, T/C","second compound 0.316 µM, first compound 0.1 µM",133%
same,"viability, T/C","second compound 0.316 µM, first compound 0.316 µM",103%
same,"viability, T/C","second compound 0.316 µM, first compound 1 µM",125%
same,"viability, T/C","second compound 0.316 µM, first compound 3.16 µM",135%
same,"viability, T/C","second compound 0.316 µM, first compound 10 µM",78%
same,"viability, T/C","second compound 1 µM, first compound 0.0316 µM",97.3%
same,"viability, T/C","second compound 1 µM, first compound 0.1 µM",123%
same,"viability, T/C","second compound 1 µM, first compound 0.316 µM",126%
same,"viability, T/C","second compound 1 µM, first compound 1 µM",109%
same,"viability, T/C","second compound 1 µM, first compound 3.16 µM",112%
same,"viability, T/C","second compound 1 µM, first compound 10 µM",103%
same,"viability, T/C","second compound 3.16 µM, first compound 0.0316 µM",98.3%
same,"viability, T/C","second compound 3.16 µM, first compound 0.1 µM",124%
same,"viability, T/C","second compound 3.16 µM, first compound 0.316 µM",115%
same,"viability, T/C","second compound 3.16 µM, first compound 1 µM",132%
same,"viability, T/C","second compound 3.16 µM, first compound 3.16 µM",123%
same,"viability, T/C","second compound 3.16 µM, first compound 10 µM",82.7%
same,"viability, T/C","second compound 10 µM, first compound 0.0316 µM",115%
same,"viability, T/C","second compound 10 µM, first compound 0.1 µM",102%
same,"viability, T/C","second compound 10 µM, first compound 0.316 µM",112%
same,"viability, T/C","second compound 10 µM, first compound 1 µM",113%
same,"viability, T/C","second compound 10 µM, first compound 3.16 µM",145%
same,"viability, T/C","second compound 10 µM, first compound 10 µM",85.3%
